One data set concerns HuH-7 cells. The data set is described as follows: Inhibition of HuH-7 cell proliferation (CellTiter-Glo). The data set is classed as cell-based. As to conditions: Homo sapiens, 72 hours. Put shortly: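 HuH-7 cells, pre-incubated 16–24 h (37 °C, 5% CO2), then exposed to serially diluted compound for 72 h. Viability by CellTiter-Glo luminescence; inhibition rates from signal, IC50 by curve fitting.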
Background: Cellular ATP, detected with luciferase, serves as a proxy for viable cell number.

Another data set deals with FGFR1 kinase (Homo sapiens (Human), UniProt P11362). The data set is described as follows: Enzymologic experiment of FGFR1 (TR-FRET). The data set is classed as biochemical. As to conditions: TR-FRET kinase activity. Put shortly:
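Inhibition of FGFR1 (0.1–5 nM) was measured by TR-FRET with 5–50 nM peptide substrate and 10–200 μM ATP over 0.5–3 h at room temperature. The reaction was stopped with EDTA plus labeled antibody for 1 h, read at 665 nm, and IC50 was fitted from inhibition rates.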
(In TR-FRET formats the signal depends on donor and acceptor labels being close together.)

For a further data set, the system named is SK-HEP-1 cells. The data set is described as follows: Inhibition of SK-HEP-1 cell proliferation (CellTiter-Glo). The data set is classed as cell-based. The following applies: Homo sapiens, SK-HEP1, 72 hours. Put shortly:
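SK-HEP-1 cells were seeded, grown 16–24 h, then exposed to serially diluted compound for 72 h at 37 °C, 5% CO2. Viability was read by CellTiter-Glo luminescence, and IC50 was fitted from inhibition rates.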

In another data set the target is FGFR4 kinase (Homo sapiens (Human), UniProt P22455). Kind of data set: Enzymologic experiment of FGFR4 (TR-FRET). The format is biochemical. The following applies: TR-FRET kinase activity. The protocol: 1. Enzymologic Experiment of FGFR4
In this experiment, the inhibitory effect of the compounds on FGFR4 kinase activity was tested by a fluorescence resonance energy transfer (TR-FRET) method, and the half maximal inhibitory concentration (IC50) of the compounds on the FGFR4 kinase activity was determined.
2) 1˜5 μL of diluted solution in gradient of the compound were added.
4) The mixture was incubated for 0.5-3 hours at room temperature.
5) 10 μL of EDTA and a test solution comprising labeled antibody were added, and the plate was incubated for 1 hour at room temperature.
6) The fluorescence signal values of each plate were determined by a microplate reader at 665 nm.
7) The inhibition rates were calculated according to the fluorescence signal values.

The subject of the next data set is Hep 3B cells. The data set is described as follows: Inhibition of Hep 3B cell proliferation (CellTiter-Glo). The following applies: Homo sapiens, Hep3B, 72 hours. The data set is classed as cell-based. The method in brief: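 Hep 3B cells seeded at 1-5×10^4 cells/ml and incubated 16-24 h, then exposed to serially diluted compound for 72 h at 37° C, 5% CO2. Viability read by CellTiter-Glo chemiluminescence; IC50 curve-fitted from inhibition rates.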

The nature of data set [1]: Pharmacokinetic (PK) analysis in rats. The format is in vivo, Sprague Dawley (SD) rats. The following applies: SD rats, single intragastric administration, 5 mg/kg, plasma.

SMILES strings stand for the structures.

Sequence of FGFR4 kinase (P22455 22-802): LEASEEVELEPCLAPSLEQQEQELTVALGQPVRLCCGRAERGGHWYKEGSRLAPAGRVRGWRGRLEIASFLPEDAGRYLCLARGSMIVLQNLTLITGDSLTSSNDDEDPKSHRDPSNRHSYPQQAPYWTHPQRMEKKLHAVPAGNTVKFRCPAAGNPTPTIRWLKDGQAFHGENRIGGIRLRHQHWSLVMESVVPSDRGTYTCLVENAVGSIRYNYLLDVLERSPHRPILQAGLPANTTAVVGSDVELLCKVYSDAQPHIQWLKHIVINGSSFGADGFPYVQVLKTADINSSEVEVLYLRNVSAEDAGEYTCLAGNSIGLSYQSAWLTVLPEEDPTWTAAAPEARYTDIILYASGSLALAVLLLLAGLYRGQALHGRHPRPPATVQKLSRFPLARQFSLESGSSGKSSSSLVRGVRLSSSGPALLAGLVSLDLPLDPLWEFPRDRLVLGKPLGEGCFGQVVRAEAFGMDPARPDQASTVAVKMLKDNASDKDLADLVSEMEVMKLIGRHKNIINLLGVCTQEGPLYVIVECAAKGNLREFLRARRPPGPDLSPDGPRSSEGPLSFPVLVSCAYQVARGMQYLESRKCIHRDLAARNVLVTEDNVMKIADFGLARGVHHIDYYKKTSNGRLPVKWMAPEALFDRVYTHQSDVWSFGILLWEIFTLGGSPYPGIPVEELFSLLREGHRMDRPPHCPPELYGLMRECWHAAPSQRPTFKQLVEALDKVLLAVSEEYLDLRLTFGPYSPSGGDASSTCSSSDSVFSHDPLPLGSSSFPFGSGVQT
Sequence of FGFR1 kinase (P11362 22-822): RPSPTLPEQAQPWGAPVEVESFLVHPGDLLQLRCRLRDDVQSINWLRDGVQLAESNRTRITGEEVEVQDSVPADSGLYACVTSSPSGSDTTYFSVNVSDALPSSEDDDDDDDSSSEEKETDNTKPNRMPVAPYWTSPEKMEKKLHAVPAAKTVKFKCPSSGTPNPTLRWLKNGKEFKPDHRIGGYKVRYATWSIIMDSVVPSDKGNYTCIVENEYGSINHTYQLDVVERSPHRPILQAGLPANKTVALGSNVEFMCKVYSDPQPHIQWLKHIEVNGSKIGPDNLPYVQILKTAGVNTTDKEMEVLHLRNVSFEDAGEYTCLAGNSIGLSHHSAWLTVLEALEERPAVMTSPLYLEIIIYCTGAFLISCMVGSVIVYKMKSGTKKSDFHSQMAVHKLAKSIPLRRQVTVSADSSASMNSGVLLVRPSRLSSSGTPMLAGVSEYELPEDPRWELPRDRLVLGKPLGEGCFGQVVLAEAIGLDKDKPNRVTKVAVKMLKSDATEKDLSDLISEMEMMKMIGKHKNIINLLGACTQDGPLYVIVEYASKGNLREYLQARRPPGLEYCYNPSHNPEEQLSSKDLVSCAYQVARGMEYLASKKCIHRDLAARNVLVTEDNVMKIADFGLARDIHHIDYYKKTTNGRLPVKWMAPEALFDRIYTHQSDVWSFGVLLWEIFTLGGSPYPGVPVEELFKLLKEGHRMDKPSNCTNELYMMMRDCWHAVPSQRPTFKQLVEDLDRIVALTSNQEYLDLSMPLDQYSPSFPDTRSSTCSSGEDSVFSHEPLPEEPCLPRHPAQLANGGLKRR

As a reminder, the IC50 is the concentration that inhibits the measured activity by half. Read a low IC50 as higher potency. By MRT is commonly meant a mean duration of stay, worked out from the concentration-time curve. `CO[C@H]1CCN(Cc2cc3c(nc2C=O)N(C(=O)Nc2cc(N[C@@H]4COC[C@H]4OC)c(C#N)cn2)CCC3)C1=O` [Example 86]: the IC50 in the data set on HuH-7 cells is 13.1 nM; on FGFR1 kinase, > 10000 nM; in the data set with SK-HEP-1 cells it was > 10000 nM; against FGFR4 kinase it was 1.34 nM; in the data set with Hep 3B cells, 3 nM. This molecule also registered a Peak Time tmax in data set [1] of 2 h. Besides, the AUC(0-t) in data set [1] (Sprague-Dawley, rat, po, read-out: Area Under Curve AUC0-t) came to 6830 ng·h/mL. Besides, the AUC(0-inf) in data set [1] (Sprague-Dawley, rat, po, read-out: Area Under Curve AUC0-∞) came out at 6900 ng·h/mL. For the same molecule, the half-life in data set [1] (Sprague-Dawley, rat, po, read-out: Half-Time t1/2 (converted)) is 1 h. In addition, in data set [1] (Sprague-Dawley, rat, po, read-out: Mean Residence Time MRT), the MRT is 2.7 h. Besides, the Cmax in data set [1] (Sprague-Dawley, rat, po, read-out: Plasma Concentration Cmax) is 2760 ng/mL.

(Values after patent publication US11608332B2, “FGFR4 inhibitor and preparation method and use thereof” (Jiangsu Hansoh Pharmaceutical Group Co., Ltd., priority 2016, dated 2023).)
